Measured values from US20160083424A1, “COMPOSITIONS AND METHODS FOR TARGETING ANTIGEN-PRESENTING CELLS” (OSLO UNIVERSITETSSYKEHUS HF, priority 2013, published 2016).

Key:
[1] = tested on: iDCs; experiment: Peptide binding by flow cytometry; set-up: species or system human; details: iDCs
Method: The cells were seeded onto 24-well plate (3×10^5/well/0.5 ml) in X-vivo 15 medium and incubated overnight at 37° C. Subsequently, they were incubated with 6IAF-conjugated peptides (5 μg/ml) for 30 min at 37° C., gently scraped, washed 3 times and then analyzed by flow cytometry. Binding was also performed at 4° C.

[2] = tested on: PBMCs; experiment: Autologous stimulation of PBMCs with pp65 targeted peptides, [3H] thymidine incorporation; type: cell-based, human; details: whole PBMCs, peptides at 4° C., 5 days at 37° C.
Method: (§1) PBMC from HLA-A2/CMV+ donors were thawed, washed and then incubated with the peptides (5 μg/ml) for 60 min at 4° C. Subsequently, the cells were washed twice and then plated at 2×10^5 cells per well in 96-well tissue culture plate. Cells were cultured for 5 days and subsequently they were pulsed with [^3H] thymidine and harvested 16 h later. In some experiments, the cells were cultured for 12 days and then stained with dextramers specific for pp65 NLVPMVATV (SEQ ID NO:19) epitope. Monocyte-depleted PBMCs were also used. To analyze primary immune responses against pp65 protein, PBMCs from HLA-A2+/CMV-negative donors were used. Autologous DCs were incubated with either NW-pp65 or GA-pp65 peptide (5 μg/ml) at 4° C. for 1 h, followed by three washes to remove unbound peptides. Subsequently, the cells were incubated with CD45RO-depleted PBMC (responder cells) and co-cultured for 10 days at ratio 1/10 (DC to responder cells) in X-vivo 15 medium supplemented with 10 ng/ml human IL-7 for 10 days. After 2 rounds of stimulation (8 days each) with autologous DC loaded with peptides, the cells were stained with dextramers specific for pp65 NLVPMVATV (SEQ ID NO:19) epitope. To test spontaneous uptake of peptides by DCs, PBMCs from HLA-A2+/CMV positive donors were incubated at 37° C. with various concentrations of untargeted or targeted pp65 peptide for 90 min. […]

[3] = tested on: iDCs; experiment: Peptide binding and internalization by fluorescence microscopy; type: cell-based, human; details: 37° C.
Method: Then the medium was replaced with fresh medium and the cells were incubated with the peptides (5 μg/ml) for 60 min at 37° C. followed by 5 min incubation with Hoechst 33342 (Invitrogen Dynal AS, Oslo, Norway). The cells were washed twice with PBS and fixed with 4% paraformaldehyde for 15 min at 4° C. After washing, slides were covered with Dako cytomation fluorescent mounting medium and then images were taken with either epifluorescence (Leica DM RHC, Leica Microscopy As, Oslo, Norway) or confocal microscopy (Zeiss LSM 510, […]).

[4] = tested on: pp65-specific naïve T cells; experiment: Induction of CMV-pp65-specific T cells from naive donor repertoire, dextramer staining; type: cell-based, human; details: CD45RO-depleted PBMCs, HLA-A2+/CMV negative donors, IL-7, representative example
Method: as §1, with “days.” for “days. After 2 rounds of stimulation (8 days each) with autologous DC loaded with peptides, the cells were stained with dextramers specific for pp65 NLVPMVATV (SEQ ID NO:19) epitope. To test spontaneous uptake of peptides by DCs, PBMCs from HLA-A2+/CMV positive donors were incubated at 37° C. with various concentrations of untargeted or targeted pp65 peptide for 90 min.”
Dextramers with CMV (NLVPMVATV) (SEQ ID NO:19) and HIV (ILKEPVHGV) (SEQ ID NO:22) HLA-A2 specific antigens were obtained from Immudex (Copenhagen, Denmark). […] Cells were washed and resuspended in SB containing 1% paraformaldehyd and analyzed on a BD SLR II flow cytometer. The data were analyzed using FCS Express (De Novo Software, Los Angeles, Calif., USA). […]

NWYLPWLGTNDWGCFTWPPWQAGILARNLVPMVATVQGQNLKYQEFFWDANDIYRIFAEL [NW-60-mer, 48-mer CMV pp65 peptide fused to NW peptide]
binding of 6IAF-conjugated pp65 fusion peptides to DCs [1]: bound to iDCs
T-cell proliferation ([3H]-thymidine) [2]: stimulated T-cell proliferation
internalization by iDCs (confocal microscopy) [3]: internalized
pp65-specific naïve T cells (dextramer staining) [4]: 0.22%
